This note sets out measurements from patent US8921307B2, “Synthetic linear apelin mimetics for the treatment of heart failure” (priority 2012, dated 2014).

Where a SMILES comes first, the peptide text is derived from it. [ ]: non-standard residue; d: D form. dTic = O=C(O)[C@H]1Cc2ccccc2CN1; pGlu = O=C1CC[C@@H](C(=O)O)N1; dNle = CCCC[C@@H](N)C(=O)O; Aib = CC(C)(N)C(=O)O

One data set concerns the target T1, hAPJ (Homo sapiens, UniProt P35414).
T1 sequence (P35414 1-380): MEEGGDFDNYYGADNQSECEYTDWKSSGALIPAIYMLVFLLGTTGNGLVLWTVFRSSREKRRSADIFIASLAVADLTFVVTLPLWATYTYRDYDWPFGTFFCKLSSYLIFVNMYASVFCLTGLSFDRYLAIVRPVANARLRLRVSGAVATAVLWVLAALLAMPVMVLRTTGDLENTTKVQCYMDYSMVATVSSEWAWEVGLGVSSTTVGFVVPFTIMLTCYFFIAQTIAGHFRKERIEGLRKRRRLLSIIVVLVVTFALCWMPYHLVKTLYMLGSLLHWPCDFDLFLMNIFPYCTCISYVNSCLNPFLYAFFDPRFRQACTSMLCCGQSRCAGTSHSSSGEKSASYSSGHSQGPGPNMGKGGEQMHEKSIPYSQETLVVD
In words: hAPJ Calcium Flux Assay. The note with it: Chem-5 APJ stable cells, FLIPR calcium flux stimulation; read-out: hAPJ Ca^2+ Flux EC50. The data set is classed as cell-based. In short, it runs like this: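 Chem-5 cells stably expressing APJ, loaded 1 h with Calcium 4 dye plus 2.5 mM probenecid at 37 °C. Peptides added at final […] in HBSS/HEPES/0.1% BSA, in triplicate.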

Data set [1] can be described thus: Plasma Stability Assay (LC-MS). It is filed as in vitro ADME. To be noted: male, Sprague-Dawley, rat. The protocol:
Plasma Stability Assay: Materials: Working solution: 1 mg/mL test article is prepared in Milli-Q water Extraction solution: Methanol:Acetonitrile:Water (1:1:1) with 0.1% Formic Acid and 400 ng/mL Glyburide. Plasma: Male Sprague-Dawley rat plasma (with sodium heparin), purchased from Bioreclamation LLC (Liverpool, N.Y.). Test article was prepared in one of the following biological matrices: heparinized rat plasma, heparinized rat whole blood or lung homogenate. […] Lung homogenate samples were prepared by diluting lung homogenate to 1 mg/ml protein concentration with phosphate buffered saline (PBS), followed by addition of 5 uL Working solution to 995 uL diluted lung homogenate. The samples were incubated at 37° C. with gentle shaking (65˜75 rpm) in a water bath incubator. […] Afterwards, a pipetting device (Tecan Temo) was used to tranfer the supernatants to another plate and add 50 uL of water to all samples. The plate was vortexed prior to LC-MS analysis. LC-MS Analysis of stability samples HPLC: Agilent 1290 HPLC with autosampler Column: MAC-MOD ACE C18, 3 μm, 30 mm×2.1 mm i.d. Mobile phase A: 0.1% Formic acid in acetonitrile Mobile phase B: 0.1% Formic acid in water Gradient Program: [table]

The nature of data set [2]: Surrogate Activity-Based Plasma Stability Assay. The data set is classed as in vitro ADME. The note with it: rat. The protocol: Stability half-life was then calculated by the formula, t½=0.693÷k Surrogate Activity-Based Plasma Stability Assay: […]
2) Calculate slope of value above and […]

The mark [3] stands for this setting: Surrogate Activity based Plasma stability t½.
The mark [4] stands for this setting: Surrogate activity-based Plasma stability t½.

As to `CCCC[C@@H](NC(=O)[C@@H]1CCCN1C(=O)CNC(=O)[C@H](CCCCN)NC(=O)C(C)(C)NC(=O)[C@H](CO)NC(=O)[C@@H](CC(C)C)NC(=O)[C@H](CCCNC(=N)N)NC(=O)[C@@H]1CCCN1C(=O)[C@H](CCCNC(=N)N)NC(=O)[C@@H]1CCC(=O)N1)C(=O)N[C@H](C)C(=O)N[C@H](Cc1ccccc1)C(=O)O` [Example 4, pE-R-P-R-(D-Leu)-S-Aib-K-G-P-nle-a-f-OH] ([pGlu]RPR[dL]S[Aib]KGP[dNle][dA][dF]-OH), the EC50 on hAPJ amounted to 5 nM. Further, the half-life at 5000 ng/mL in data set [1] worked out at 6.9 h. Besides, the half-life in data set [2] (setting [3]) and in data set [2] (setting [4]) was 12.2 h each time.
For `CCCC[C@@H](NC(=O)[C@@H]1CCCN1C(=O)CNC(=O)[C@H](CCCCN)NC(=O)[C@@H](Cc1c[nH]cn1)NC(=O)[C@@H](C)NC(=O)[C@H](CC(C)C)NC(=O)[C@H](CCCNC(=N)N)NC(=O)[C@@H]1CCCN1C(=O)[C@H](CCCNC(=N)N)NC(=O)[C@@H]1CCC(=O)N1)C(=O)N[C@H](C)C(=O)N[C@H](Cc1ccccc1)C(=O)O` [Example 16, pE-R-P-R-L-a-h-K-G-P-nle-a-f-OH], on hAPJ, the EC50 stood at 8.8 nM. This molecule also came in with a half-life at 5000 ng/mL in data set [1] of 7.47 h. The half-life in data set [2] (setting [3]) and in data set [2] (setting [4]) was 6.82 h throughout.
Regarding `CCCC[C@@H](NC(=O)[C@@H]1CCCN1C(=O)CNC(=O)[C@H](CCCCN)NC(=O)[C@H](Cc1c[nH]cn1)NC(=O)[C@@H](C)NC(=O)[C@H](CC(C)C)NC(=O)[C@H](CCCNC(=N)N)NC(=O)[C@@H]1CCCN1C(=O)[C@H](CCCNC(=N)N)NC(=O)[C@@H]1CCC(=O)N1)C(=O)N[C@H](C)C(=O)N[C@H](Cc1ccccc1)C(=O)O` [Example 29, pE-R-P-R-L-a-H-K-G-P-nle-a-f-OH], in data set [1], the half-life at 5000 ng/mL stood at 2.6 h. For the same molecule, the half-life in data set [2] (setting [3]) and in data set [2] (setting [4]) was 9.42 h in each case.
For `CCCC[C@@H](NC(=O)[C@@H]1CCCN1C(=O)CNC(=O)[C@H](CCCCN)NC(=O)[C@H](Cc1ccccc1)NC(=O)[C@@H](C)NC(=O)[C@H](CC(C)C)NC(=O)[C@H](CCCNC(=N)N)NC(=O)[C@@H]1CCCN1C(=O)[C@H](CCCNC(=N)N)NC(=O)[C@@H]1CCC(=O)N1)C(=O)N[C@H](C)C(=O)N[C@H](Cc1ccccc1)C(=O)O` [Example 17, pE-R-P-R-L-a-F-K-G-P-nle-a-f-OH] ([pGlu]RPRL[dA]FKGP[dNle][dA][dF]-OH), the EC50 at hAPJ was 3.1 nM. The molecule also registered a half-life at 5000 ng/mL in data set [1] of 6.08 h. The half-life in data set [2] (setting [3]) and in data set [2] (setting [4]) was over 16.7 h in each case.
On to `CCCC[C@@H](NC(=O)[C@@H]1CCCN1C(=O)CNC(=O)[C@H](CCCCN)NC(=O)[C@H](Cc1c[nH]cn1)NC(=O)[C@@H](C)NC(=O)[C@H](CC(C)C)NC(=O)[C@H](CCCNC(=N)N)NC(=O)[C@@H](C)NC(=O)[C@H](CCCNC(=N)N)NC(=O)[C@@H]1CCC(=O)N1)C(=O)N[C@H](C)C(=O)N[C@H](Cc1ccccc1)C(=O)O` [Example 49, pE-R-a-R-L-a-H-K-G-P-nle-a-f-OH] ([pGlu]R[dA]RL[dA]HKGP[dNle][dA][dF]-OH), for which the EC50 on hAPJ worked out at 623 nM. This molecule also returned a half-life in data set [2] (setting [4]) of over 16.7 h.
On the same counts, the results for `CCCC[C@@H](NC(=O)[C@@H]1CCCN1C(=O)CNC(=O)[C@H](CCCCN)NC(=O)[C@H](Cc1c[nH]cn1)NC(=O)[C@@H](C)NC(=O)[C@H](CC(C)C)NC(=O)[C@H](CCCNC(=N)N)NC(=O)[C@@H]1CCCN1C(=O)[C@H](CCCNC(=N)N)NC(=O)[C@@H]1CCC(=O)N1)C(=O)N[C@H](C)C(=O)N1Cc2ccccc2C[C@@H]1C(=O)O` [Example 26, pE-R-P-R-L-a-H-K-G-P-nle-a-tic-OH] ([pGlu]RPRL[dA]HKGP[dNle][dA][dTic]-OH) are 1.7 nM and 16.4 h.
With `CCCC[C@@H](NC(=O)[C@@H]1CCCN1C(=O)CNC(=O)[C@H](CCCCN)NC(=O)[C@@H](Cc1c[nH]cn1)NC(=O)[C@H](C)NC(=O)[C@H](CC(C)C)NC(=O)[C@H](CCCNC(=N)N)NC(=O)[C@@H]1CCCN1C(=O)[C@H](CCCNC(=N)N)NC(=O)[C@@H]1CCC(=O)N1)C(=O)N[C@H](C)C(=O)N[C@H](Cc1ccccc1)C(=O)O` [Example 58, pE-R-P-R-L-A-h-K-G-P-nle-a-f-OH], the EC50 on hAPJ turned out to be 55.1 nM. In addition, the half-life in data set [2] (setting [4]) came out at 3.8 h.
